Publication PMC10962542, “Inhibition of Aurora‐A/N‐Myc Protein–Protein Interaction Using Peptidomimetics: Understanding the Role of Peptide Cyclization” (Chembiochem, 2023)
Like-named read-outs stand apart in the source and are kept apart here. Where a SMILES comes first, the peptide text is derived from it. Bridges are numbered along the chain shown (N, C = ends).

How the values were obtained:
[1] = target: T1, N‐Myc/Aurora‐A interaction (Aurora‐A122‐403‐C290A/C393A) (Homo sapiens, UniProt O14965, C290A/C393A); assay: competition fluorescence anisotropy (FA) assay against fluorescein labelled N‐Myc61‐89; assay type: binding; also: equilibrated 2 h at room temperature
T1 construct: Aurora‐A 122‐403‐C290A/C393A protein was produced as described previously; made in house
T1 sequence (O14965 122-403 C290A/C393A): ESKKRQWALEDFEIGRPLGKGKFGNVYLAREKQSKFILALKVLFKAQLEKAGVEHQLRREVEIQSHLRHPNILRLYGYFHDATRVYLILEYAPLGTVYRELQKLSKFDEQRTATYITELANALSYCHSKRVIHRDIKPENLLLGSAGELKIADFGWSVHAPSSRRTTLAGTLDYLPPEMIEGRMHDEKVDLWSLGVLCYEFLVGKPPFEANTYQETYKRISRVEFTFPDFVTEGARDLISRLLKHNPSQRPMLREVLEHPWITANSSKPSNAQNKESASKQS
Experimental: Fluorescence anisotropy (FA) assays: All assays were performed using 384‐well plates (Greiner Bio‐one, UK). […] All samples were prepared in 25 mM Tris, 150 mM NaCl, 5 mM MgCl2, pH 7.5, and tested in triplicate using an EnVisionTM 2103 MultiLabel plate reader (Perkin Elmer; Waltham, MA, USA). The parameters were set as follows: Excitation wavelength=480 nm (30 nm bandwidth) and emission wavelength=535 nm (30 nm bandwidth). Measured data were processed and analysed as previously described.[31] Specifically, the perpendicular intensity (P) and parallel intensity (S) were subtracted by the control values and used for calculations of intensity and anisotropy using the following Equations 1, 2, 3, 4, and 5: (1) I=2PG+S (2) r=S-PG (3) Lb=r-rmin/λrmax-r+r-rmin (4) [drawing 1] (5) y=rmax+rmin-rmax/1+(x/x0)^p
For competition FA assays, the average anisotropy and the average standard deviation of the values derived from equation (2) were calculated and fit to a sigmoidal logistic model (equation (5)) using Origin 2021. […] Results are reported as IC50±SD, with data points representing the mean of three replicates and error bars indicating the corresponding SD. Where applicable, ΔΔG was determined as follows: ΔΔG=−RT ln (ΔIC50).

[2] = circular dichroism (CD) spectroscopy; assay type: physicochemical; settings: 150 mM NaCl, 5 mM MgCl2, pH 7.5, 5 °C, n=2, free‐thiol (red) samples with 5 mol equivalents TCEP; for MRE222 (mean residue ellipticity at 222 nm): 25 mM Tris, mean ± SD, SD; for % Helicity (estimated): from MRE222 by equation 7, 25 mM Tris
Experimental: Circular dichroism (CD): All samples were prepared in Tris buffer (25 mM Tris, 150 mM NaCl, 5 mM MgCl2, pH 7.5) with the exception of free sulfhydryl peptides, to which Tris(2‐carboxyethyl)phosphine (TCEP; 5 mol eq. relative to the peptide) was added. CD spectra were recorded using an APP Chirascan CD spectropolarimeter and 1 mm pathlength quartz cuvettes. Sample concentrations were typically 30–120 μM, as determined by UV−V absorption based on a tryptophan extinction coefficient of 5600 M^−1 cm^−1 and, for mal‐constrained variants, a maleimide coefficient of 1700 M^−1 cm^−1.[16, 32] […] Spectra were recorded in duplicate at 5 °C, over wavelengths ranging from 290 to 180 nm, with data collected every 1 nm (1 nm s^−1). A background spectrum for CD buffer alone was also recorded and background ellipticity values were subtracted from raw sample ellipticity values (θ) when calculating mean residue ellipticities (MREs) using Equation 6: (6) MRE=(θλ-θ0)xMw/nxlxc
Where [θ]λ is the observed ellipticity at a given wavelength λ in mdeg, [θ]0 is the ellipticity observed for the buffer, Mw =molar weight of the peptide in g mol^−1, n=number of residues; c=sample concentration (mg mL^−1); l=pathlength of the cuvette in mm. Estimates of peptide % helicity were made using Equation 7, [33] (7) %helicity=(MRE222-MREcoil)x100/-425001-3/n
where MRE222 is the MRE value at 222 nm, MREcoil=640‐45T (with T in °C)=415 deg cm^2 dmol^−1 res^−1 at 5 °C, and n is the number of backbone amide bonds including the N‐terminal acetyl.

| Compound | IC50 [1] [µM] | MRE222 (mean residue ellipticity at 222 nm) [2] [deg cm^−1 dmol^−1 res^−1] | % Helicity (estimated) [2] [%] | IC50 ([1]; SD) [µM] |
| --- | --- | --- | --- | --- |
| CSCC[C@@H]1NC(=O)[C@H](CCC(=O)O)NC(=O)[C@H]([C@@H](C)O)NC(=O)[C@@H](NC(=O)[C@H](Cc2c[nH]c3ccccc23)NC(=O)[C@H](CO)NC(=O)[C@@H]2CCCN2C(=O)[C@@H]2CCCN2C(=O)[C@H](CCC(=O)O)NC(=O)[C@H](CO)NC(=O)[C@H](CO)NC(=O)[C@H](Cc2c[nH]cn2)NC(=O)[C@H](CCC(=O)O)NC(=O)[C@H](C)NC(=O)[C@H](Cc2ccccc2)NC(=O)CNC(=O)[C@H](CCCNC(=N)N)NC(=O)[C@H](CO)NC(=O)[C@@H]2CCCN2C(=O)[C@H](CO)NC(=O)[C@H](CC(C)C)NC(C)=O)CSSC[C@@H](C(=O)N[C@@H](CC(C)C)C(=O)N[C@@H](CCC(=O)O)C(=O)N[C@@H](CC(N)=O)C(=O)N[C@@H](CCC(=O)O)C(=O)N[C@@H](CC(C)C)C(=O)N[C@@H](Cc2c[nH]c3ccccc23)C(=O)NCC(N)=O)NC1=O [N-Myc 61-89 V78C/L82C ox] (Ac-LSPSRGFAEHSSEPPSWCTEMCLENELWG-NH2; disulfide 18-22) | ≥ 500 | -2823 ± 48 | 8 ± 1 |  |
| CSCC[C@H](NC(=O)[C@H](CCC(=O)O)NC(=O)[C@@H](NC(=O)[C@@H](NC(=O)[C@H](Cc1c[nH]c2ccccc12)NC(=O)[C@H](CO)NC(=O)[C@@H]1CCCN1C(=O)[C@@H]1CCCN1C(=O)[C@H](CCC(=O)O)NC(=O)[C@H](CO)NC(=O)[C@H](CO)NC(=O)[C@H](Cc1c[nH]cn1)NC(=O)[C@H](CCC(=O)O)NC(=O)[C@H](C)NC(=O)[C@H](Cc1ccccc1)NC(=O)CNC(=O)[C@H](CCCNC(=N)N)NC(=O)[C@H](CO)NC(=O)[C@@H]1CCCN1C(=O)[C@H](CO)NC(=O)[C@H](CC(C)C)NC(C)=O)C(C)C)[C@@H](C)O)C(=O)N[C@H]1CSSC[C@@H](C(=O)N[C@@H](CC(C)C)C(=O)N[C@@H](Cc2c[nH]c3ccccc23)C(=O)NCC(N)=O)NC(=O)[C@H](CC(N)=O)NC(=O)[C@H](CCC(=O)O)NC(=O)[C@H](CC(C)C)NC1=O [N-Myc 61-89 L82C/E86C ox] (Ac-LSPSRGFAEHSSEPPSWVTEMCLENCLWG-NH2; disulfide 22-26) |  | -2630 ± 119 | 8 ± 1 | 219 ± 23 |
| CC(=O)N[C@@H](CC(C)C)C(=O)N[C@@H](CO)C(=O)N1CCC[C@H]1C(=O)N[C@@H](CO)C(=O)N[C@@H](CCCNC(=N)N)C(=O)NCC(=O)N[C@@H](Cc1ccccc1)C(=O)N[C@@H](C)C(=O)N[C@@H](CCC(=O)O)C(=O)N[C@@H](Cc1c[nH]cn1)C(=O)N[C@@H](CO)C(=O)N[C@@H](CO)C(=O)N[C@@H](CCC(=O)O)C(=O)N1CCC[C@H]1C(=O)N1CCC[C@H]1C(=O)N[C@@H](CO)C(=O)N[C@@H](Cc1c[nH]c2ccccc12)C(=O)N[C@H](C(=O)N[C@H](C(=O)N[C@@H](CCC(=O)O)C(=O)N[C@@H](CS)C(=O)N[C@@H](CC(C)C)C(=O)N[C@@H](CC(C)C)C(=O)N[C@@H](CCC(=O)O)C(=O)N[C@@H](CS)C(=O)N[C@@H](CCC(=O)O)C(=O)N[C@@H](CC(C)C)C(=O)N[C@@H](Cc1c[nH]c2ccccc12)C(=O)NCC(N)=O)[C@@H](C)O)C(C)C [N-Myc 61-89M81C/N85C red] (Ac-LSPSRGFAEHSSEPPSWVTECLLECELWG-NH2) |  | -2198 ± 93 | 7 ± 1 | 164 ± 6 |
| CSCC[C@@H]1NC(=O)[C@H](CCC(=O)O)NC(=O)[C@@H](NC(=O)[C@@H](NC(=O)[C@H](Cc2c[nH]c3ccccc23)NC(=O)[C@H](CO)NC(=O)[C@@H]2CCCN2C(=O)[C@@H]2CCCN2C(=O)[C@H](CCC(=O)O)NC(=O)[C@H](CO)NC(=O)[C@H](CO)NC(=O)[C@H](Cc2c[nH]cn2)NC(=O)[C@H](CCC(=O)O)NC(=O)[C@H](C)NC(=O)[C@H](Cc2ccccc2)NC(=O)CNC(=O)[C@H](CCCNC(=N)N)NC(=O)[C@H](CO)NC(=O)[C@@H]2CCCN2C(=O)[C@H](CO)NC(=O)[C@H](CC(C)C)NC(C)=O)C(C)C)CSSC[C@@H](C(=O)N[C@@H](CCC(=O)O)C(=O)N[C@@H](CC(N)=O)C(=O)N[C@@H](CCC(=O)O)C(=O)N[C@@H](CC(C)C)C(=O)N[C@@H](Cc2c[nH]c3ccccc23)C(=O)NCC(N)=O)NC(=O)[C@H](CC(C)C)NC1=O [N-Myc 61-89T79C/L83C ox] (Ac-LSPSRGFAEHSSEPPSWVCEMLCENELWG-NH2; disulfide 19-23) |  | -1951 ± 84 | 6 ± 1 | 75 ± 8 |
| CSCC[C@@H]1NC(=O)[C@@H](NC(=O)[C@@H](NC(=O)[C@@H](NC(=O)[C@H](Cc2c[nH]c3ccccc23)NC(=O)[C@H](CO)NC(=O)[C@@H]2CCCN2C(=O)[C@@H]2CCCN2C(=O)[C@H](CCC(=O)O)NC(=O)[C@H](CO)NC(=O)[C@H](CO)NC(=O)[C@H](Cc2c[nH]cn2)NC(=O)[C@H](CCC(=O)O)NC(=O)[C@H](C)NC(=O)[C@H](Cc2ccccc2)NC(=O)CNC(=O)[C@H](CCCNC(=N)N)NC(=O)[C@H](CO)NC(=O)[C@@H]2CCCN2C(=O)[C@H](CO)NC(=O)[C@H](CC(C)C)NC(C)=O)C(C)C)[C@@H](C)O)CSSC[C@@H](C(=O)N[C@@H](CC(N)=O)C(=O)N[C@@H](CCC(=O)O)C(=O)N[C@@H](CC(C)C)C(=O)N[C@@H](Cc2c[nH]c3ccccc23)C(=O)NCC(N)=O)NC(=O)[C@H](CC(C)C)NC(=O)[C@H](CC(C)C)NC1=O [N-Myc 61-89 E80C/E84C ox] (Ac-LSPSRGFAEHSSEPPSWVTCMLLCNELWG-NH2; disulfide 20-24) |  | -2656 ± 28 | 8 ± 1 | 107 ± 19 |
| Ac-EPPSWVTEMLLENELWGSPAEEDAF-NH2 [N‐Myc73‐97] |  | −4886±55 | 14±1 | 79 ± 4 |
| CSCC[C@H](NC(=O)[C@H](CS)NC(=O)[C@@H](NC(=O)[C@@H](NC(=O)[C@H](Cc1c[nH]c2ccccc12)NC(=O)[C@H](CO)NC(=O)[C@@H]1CCCN1C(=O)[C@@H]1CCCN1C(=O)[C@H](CCC(=O)O)NC(=O)[C@H](CO)NC(=O)[C@H](CO)NC(=O)[C@H](Cc1c[nH]cn1)NC(=O)[C@H](CCC(=O)O)NC(=O)[C@H](C)NC(=O)[C@H](Cc1ccccc1)NC(=O)CNC(=O)[C@H](CCCNC(=N)N)NC(=O)[C@H](CO)NC(=O)[C@@H]1CCCN1C(=O)[C@H](CO)NC(=O)[C@H](CC(C)C)NC(C)=O)C(C)C)[C@@H](C)O)C(=O)N[C@@H](CC(C)C)C(=O)N[C@@H](CC(C)C)C(=O)N[C@@H](CS)C(=O)N[C@@H](CC(N)=O)C(=O)N[C@@H](CCC(=O)O)C(=O)N[C@@H](CC(C)C)C(=O)N[C@@H](Cc1c[nH]c2ccccc12)C(=O)NCC(N)=O [N-Myc 61-89E80C/E84C red] (Ac-LSPSRGFAEHSSEPPSWVTCMLLCNELWG-NH2) |  | -2562 ± 106 | 8 ± 1 | 111 ± 5 |
